Laboratory results from patent US20230147129A1, “COMPOUNDS FOR USE IN THE TREATMENT OF SYNUCLEINOPATHIES” (SOM INNOVATION BIOTECH, S.A., priority 2020, published 2023).

Experiments:
[1] = molecular target: T1, α-synuclein (Homo sapiens, UniProt P37840); assay: Light scattering of α-synuclein aggregates at end-point (48 h); format: biochemical; details: 48 h end-point; for Effect on aggregation measured by light scattering at 300 and 340 nm (in words): FIG. 2A and 2B; for Normalized light scattering value at 300 nm: normalised to control = 1, excitation 300 nm; for Normalized light scattering value at 340 nm: normalised to control = 1, excitation 340 nm
Method: Total aggregate formation at 48 h was measured by light scattering adding 80 μL of pre-aggregated α-synuclein into a quartz cuvette. Samples were previously re-suspended by carefully vortexing and pipetting, and then excited at 300 and 340 nm and 90° scattering collected between 280 to 360 nm. These measurements were performed in a Cary Eclipse Fluorescence Spectrophotometer (Agilent, Santa Clara, Calif., USA).

[2] = tested on: primary culture of dopaminergic neurons injured with a mitochondrial toxin (MPP+); assay: Neuroprotection in primary culture of dopaminergic neurons injured with MPP+; format: cell-based, rat; details: compounds 10 nM to 10 μM, pre-incubated 1 or 4 hours, MPP+ 4 μM for 48 hours, FIG. 16-20
Method: The efficacy of 5 compounds was assessed in a primary culture of dopaminergic neurons injured with a mitochondrial toxin (MPP+), which is often used to experimentally mimic the pathology of Parkinson disease (FIG. 16 to 20).
To obtain rat dopaminergic neurons, pregnant female rats (Wistar, Janvier Labs, France) of 15 days of gestation were killed using a deep anesthesia in a CO2 chamber followed by a cervical dislocation. Midbrains obtained from 15-day-old rat embryos were dissected under microscope and placed in ice-cold medium of Leibovitz (L15) containing 2% of Penicillin-Streptomycin (PS) and 1% of bovine serum albumin (BSA). The ventral portion of the mesencephalic flexure, a region of the developing brain rich in dopaminergic neurons, was used for the cell preparations.
The midbrains were dissociated by trypsinization for 20 min at 37° C. (solution at a final concentration of 0.05% trypsin and 0.02% EDTA). The reaction was stopped by adding Dulbecco's modified Eagle's medium (DMEM) containing DNAase I grade II (0.5 mg/mL) and 10% of fetal calf serum (FCS). Cells were then mechanically dissociated by 3 passages through a 10 ml pipette. […] The supernatant was discarded and the cell pellet was re-suspended in a defined culture serum-free medium consisting of Neurobasal (Invitrogen) supplemented with B27 (2%), L-glutamine (2 mM) and 2% of PS solution and 10 ng/ml of Brain-derived neurotrophic factor (BDNF) and 1 ng/mL of Glial-Derived Neurotrophic Factor (GDNF). Viable cells were counted in a Neubauer cytometer using the trypan blue exclusion test.
Half of the medium was changed every 2 days with fresh medium. On 96-wells plates, only 60 wells were used, the first columns and first lines were not used to avoid any edge effect, the empty wells were filled with sterile water.
Test compounds were tested on culture in 96-well plates (n=6 culture wells per condition).
Vehicle: Culture medium (0.1% DMSO).
Pre-incubation: On day 6 of culture, the compounds (from 10 nM to 10 μM) were dissolved in DMSO and then in culture medium, and were pre-incubated with primary dopaminergic neurons for 1 hour or 4 hours before the application of MPP+.
Injury: One or four hours after the application of the test compounds, MPP+ was added to a final concentration of 4 μM, diluted in control medium still in presence of compounds for 48 hours.
48 hours after the intoxication, the cell culture supernatant was removed, and the cells were fixed by a solution of 4% paraformaldehyde in PBS, pH=7.3 for 20 min at room temperature. The cells were washed twice in PBS, and then permeabilized. Non-specific sites were blocked with a solution of PBS containing 0.1% saponin and 1% FCS for 15 min at room temperature.
Immunostaining: TH and α-syn
The cultures were incubated with: • A monoclonal anti-Tyrosine Hydroxylase (TH) antibody produced in mouse at dilution of 1/10000 in PBS containing 1% FCS, 0.1% saponin, for 2 hours at room temperature. • a polyclonal anti-alpha synuclein (α-syn) antibody produced in rabbit at dilution of 1/200 in PBS containing 1% FCS, 0.1% saponin, for 2 hours at room temperature.
For each condition, 20 (for the TH survival and α-syn readouts) pictures representing the whole well area, were automatically taken using ImageXpress® (Molecular Devices) at 10× magnification (20 pictures, for TH and α-syn into TH neurons) using the same acquisition parameters. From images, analyses were directly and automatically performed by Custom Module Editor® (Molecular Devices). The following read-outs were measured: • Analysis of total number of THneurons (TH positive neurons), • total length of neurite network of TH positive neurons (in μm), • α-syn aggregation (overlapping between TH and α-syn staining),
Results are expressed in percentage of control. All values show the mean+/−SEM (standard error of the mean) from 4-6 wells per condition.

[3] = molecular target: T1, α-synuclein; assay: Thioflavin-T assay of α-synuclein aggregation kinetics; format: biochemical; details: 100 μM compound, FIG. 1A and 1B
Method: Lyophilized α-synuclein was dissolved in PBS (phosphate buffer solution) to a final solution of 210 μM and filtered through a Millipore 0.22 μm filter. α-synuclein aggregation was performed in a 96-well plate (non-treated, black plastic), each well containing a Teflon® polyball ⅛″ diameter (Polysciences Europe GmbH, Eppelheim, Germany), 40 μM Thioflavin-T (Th-T), 70 μM α-synuclein, 100 μM of the compounds to be tested and PBS up to a final volume of 150 μL. The plates were fixed into an orbital culture shaker Max-Q 4000 (Thermo Scientific, Waltham, Mass., USA) to keep the incubation at 37° C., 100 rpm. Every, 2 h, the fluorescence intensity was measured using a Victor 3.0 Multilabel Reader (PerkinElmer, Waltham, Mass., USA), by exciting the mixtures with 430-450 nm filter and collecting the emission intensity with 480-510 nm filter. Each measurement was performed in triplicates.
Each plate contained three (3) α-synuclein controls in the absence of any of the tested compounds. The averaged Th-T fluorescence obtained for these wells at the end of the experience was normalized to 1, and the kinetic curves in the different wells re-scaled accordingly. After compiling the fluorescence signals, means and standard error of mean (SEM) were used to fit the aggregation kinetic with equation (1),
wherein k^b and k^a indicate the homogeneous nucleation rate constant and the secondary rate constant, accounting for fibril elongation and secondary nucleation, respectively.
Re-scaled curves were used to compare the controls with the effect of the compounds and to ensure that the controls were reproducible between different experiments.

| Structure (SMILES) | Effect on aggregation measured by light scattering at 300 and 340 nm (in words) [1] | Normalized light scattering value at 300 nm [1] | Normalized light scattering value at 340 nm [1] | Loss of dopaminergic neurons (TH number) after MPP+ (in words) [2] | α-syn aggregation (ratio a-syn area/TH number) triggered by MPP+ (in words) [2] | Inhibition of Th-T fluorescence / fibril formation (in words) [3] |
| --- | --- | --- | --- | --- | --- | --- |
| Cn1ncc(Cl)c1-c1cc(C(=O)N[C@H](CN)Cc2cccc(F)c2)sc1Cl [Afuresertib, N-[(2S)-1-amino-3-(3-fluorophenyl)propan-2-yl]-5-chloro-4-(4-chloro-1-methyl-1H-pyrazol-5-yl)thiophene-2-carboxamide] | reduced absorbance at both length waves | 0.44 ± 0.08 | 0.62 ± 0.09 | partially prevented the loss of dopaminergic neurons | decreased α-syn aggregation | potent inhibitors |
| Cc1ccnc(NS(=O)(=O)c2ccc(N)cc2)n1 [Sulfamerazine, 4-amino-N-(4-methylpyrimidin-2-yl)benzenesulfonamide] | reduced absorbance at both length waves | 0.55 ± 0.10 | 0.78 ± 0.14 | – | – | potent inhibitors |
| N=C(NN=Cc1ccc(Cl)cc1)NN=Cc1ccc(Cl)cc1 [Robenidine, 1,2-bis[(4-chlorophenyl)methylideneamino]guanidine] | significant reduction of the absorbance | 0.31 ± 0.03 | 0.31 ± 0.02 | – | – | – |
| N=C(N)NCC1COC2(CCCCC2)O1 (centres unmarked) [Guanadrel, 2-(1,4-dioxaspiro[4.5]decan-2-ylmethyl)guanidine] | reduced absorbance at both length waves | 0.68 ± 0.06 | 0.68 ± 0.06 | partially prevented the loss of dopaminergic neurons | decreased α-syn aggregation | more modest inhibition of fibril formation |
| CC(CCc1ccc2c(c1)OCO2)NCC(O)c1ccc(O)c(C(N)=O)c1 (centres unmarked) [Medroxalol, 5-[2-[[3-(1,3-Benzodioxol-5-yl)-1-methylpropyl]amino]-1-hydroxyethyl]-2-hydroxybenzamide] | reduced absorbance at both length waves | 0.72 ± 0.03 | 0.75 ± 0.04 | – | – | more modest inhibition of fibril formation |
| CCCOc1ccc2[nH]c(NC(=O)OC)nc2c1 [Oxibendazole, Methyl N-(6-propoxy-1H-benzimidazol-2-yl) carbamate] | significant reduction of the absorbance | 0.13 ± 0.02 | 0.51 ± 0.10 | – | – | – |
| N=C(N)NC(=O)Cc1c(Cl)cccc1Cl [Guanfacine, N-(diaminomethylidene)-2-(2,6-dichlorophenyl)acetamide] | significant reduction of the absorbance | 0.65 ± 0.10 | 0.68 ± 0.10 | partially prevented the loss of dopaminergic neurons | decreased α-syn aggregation | more modest inhibition |
| Nc1nc(=O)c2ncn([C@H]3C=C[C@@H](CO)C3)c2[nH]1 [(−)-Carbovir, 2-amino-9-[(1R,4S)-4-(hydroxymethyl)cyclopent-2-en-1-yl]-1H-purin-6-one] | reduced absorbance at both length waves | 0.72 ± 0.08 | 0.77 ± 0.09 | – | – | more modest inhibition of fibril formation |
| C[C@@H](NCCCc1cccc(C(F)(F)F)c1)c1cccc2ccccc12 [Cinacalcet, N-[(1R)-1-(1-naphthyl)ethyl]-3-[3-(trifluoromethyl)phenyl]propan-1-amine] | significant reduction of the absorbance | 0.44 ± 0.17 | 0.48 ± 0.18 | – | – | – |
| O=C(c1ccccc1)N1CCN=C1Nc1c(Cl)cccc1Cl [Benclonidine, [2-(2,6-dichloroanilino)-4,5-dihydroimidazol-1-yl]-phenylmethanone] | – | 0.95 ± 0.07 | 0.98 ± 0.07 | partially prevented the loss of dopaminergic neurons | decreased α-syn aggregation | potent inhibitors |
